In the METLIN SMRT retention time set (Domingo-Almenara et al. 2019) one finds RP-LC retention time data, which are given here for 78 compounds.

The structures appear in SMILES notation.

This data set is described as follows: gradient 5% acetonitrile 3 min, to 50% in 2 min, to 85% in 15 min, held 3 min, 100 µL/min. The following applies: column: Zorbax Extend-C18 2.1 x 50 mm; eluents: water / acetonitrile, 0.1% formic acid. The method in brief: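 The system's dead and dwell volumes were 40 μL and 900 μL, with a Zorbax Extend-C18 column (2.1 × 50 mm, 1.8 μm) run at 100 μL/min in water and acetonitrile containing 0.1% formic acid each. Pure standards were analyzed in mixtures of ~100 molecules by HPLC–quadrupole time-of-flight mass spectrometry in positive and negative ionization mode. Retention time was assigned from computationally picked, manually inspected adduct peaks.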
In turn, `O=C(c1ccc2c(=O)n(-c3ccccc3)c(N3CCCCC3)nc2c1)N1CCN(c2ccccn2)CC1` yielded an RP-LC retention time of 669 s. With `CC(=O)Nc1ccc(SCCCC(=O)Nc2ncc([N+](=O)[O-])s2)nn1` the figure was 670 s; with `COc1ccccc1-c1nc2nccc(-c3cccnc3)n2n1`, 655 s; with `O=C(Nc1ccc(OC(F)(F)F)cc1)C1CCCN(c2cc(-n3cccn3)ncn2)C1` (stereo not drawn), 992 s.

`Cc1ccccc1-n1c(=O)c2sccc2n(Cc2nc(-c3ccc(Cl)c(F)c3)no2)c1=O`: the RP-LC retention time is 1120 s. With `CCC(C)NC(=O)c1c(C)sc2ccn(CC)c(=O)c12` (stereo not drawn) the figure was 709 s; with `Cc1ccc(CN2CCC(n3c(C)cnc3-c3cccnc3)C2)s1` (stereo not drawn), 546 s. In turn, `COc1ccccc1N1CCN(C(=O)Cn2cnc3onc(C)c3c2=O)CC1` displayed an RP-LC retention time of 720 s. The value for `O=C(NCc1cc(F)ccc1F)c1ccc2ncnc(N3CCCCC3)c2c1` was 671 s; that for `O=C(Nc1cccc(Cl)c1)N1CCC(n2c(-c3ccco3)nc3cccnc32)C1` (stereo not drawn) was 800 s; that for `N#Cc1ccc(C(=O)N2CCCC2c2nc(-c3ccccc3)n[nH]2)cc1` (stereo not drawn) was 696 s. Compound `COc1ccc(-c2nnc(NC(=O)CSc3nc4ccccc4s3)s2)cc1` showed an RP-LC retention time of 918 s.

On to `Cc1ccc(-c2cc3c(=O)n(Cc4nc(-c5ccccc5)no4)ncn3n2)c(C)c1`, for which the RP-LC retention time came to 1200 s. With `COc1ccc(NC(=O)Cn2cnc3c(sc4nc(-c5ccccc5)ccc43)c2=O)c(OC)c1` the figure was 991 s; with `CCOc1ccc(C(O)Cn2ccn3nc(-c4ccccc4C)cc3c2=O)cc1` (stereo not drawn), 985 s. With `Cn1c(=O)c2cc(C(=O)NCc3ccc(Cl)cc3)sc2n(C)c1=O` the figure was 800 s. The compound `Cc1cccc(OCC(=O)NC2CCN(Cc3c(C)noc3C)CC2)c1` yielded an RP-LC retention time of 622 s.

Take `CC(C)Nc1nc(=O)[nH]c2ccccc12`: the RP-LC retention time stood at 550 s.

The compound `O=S(=O)(c1cccnc1)N1CC[C@@H]2COCCN(Cc3cccnc3)[C@@H]2C1` gave an RP-LC retention time of 577 s.

The compound `Cn1nc(C(=O)N2CCCCC2)c2c1CCN(C(=O)CCC(=O)NCCN1CCCCCC1)C2` came in with an RP-LC retention time of 590 s. The value for `Cn1nccc1C(=O)N1CCN(c2cc(=O)n(C)c(=O)n2C)CC1` was 587 s; that for `c1ccc(-c2csc(Nc3nc(NCc4ccco4)nc(N4CCCCC4)n3)n2)cc1` was 1210 s; that for `COc1ccc(-c2cn3ccn(-c4ccc(OC)cc4)c(=O)c3n2)cc1` was 768 s. `Cc1ccc(-c2cc3c(=O)n(Cc4nc(-c5ccc(F)cc5)no4)ccn3n2)cc1` gave an RP-LC retention time of 1330 s. With `Cc1cc(C(=O)Nc2ccc(Cl)cn2)c2ccccc2n1` the figure was 694 s; with `COc1ccc(CNC(=O)Cn2cnc3c(sc4nc(-c5ccccc5)ccc43)c2=O)cc1`, 950 s; with `Fc1ccc(Nc2c(-c3ccccc3)nc3cnccn23)cc1`, 844 s. On to `COc1ccc(NC(=O)Nc2c(-c3cccc(C)c3)nc3ccccn23)c(OC)c1`, for which the RP-LC retention time was determined as 696 s.

Compound `Cc1nn(CC(=O)NCCC2=CCCCC2)c(=O)c2c(-n3cccc3)n(-c3cccc(F)c3)nc12` registered an RP-LC retention time of 1090 s. `Cc1nc(-c2ccc3c(c2)CCN3C(=O)COc2ccc(F)cc2)cs1` showed an RP-LC retention time of 960 s. With `Cc1nc(N2CCOCC2)c2c(C(=O)N3CCN(c4ccc(Cl)cc4)CC3)c(C)oc2n1` the figure was 895 s; with `O=C(NCC1CCOCC1)c1ccc2ccccc2n1`, 782 s; with `O=C(NCC1CCCO1)c1coc(NC(=O)C2CC2)n1` (stereo not drawn), 571 s.

For `Cc1sc(NC(=O)CCn2c(=O)sc3ccccc32)nc1-c1ccc(Cl)cc1`, the RP-LC retention time was 1110 s. With `CCc1cc(C(=O)Nc2ccc(C)cc2)nc2ccnn12` the figure was 1060 s; with `CCCn1cc(C(=O)Nc2ccc(F)cc2C)c2cccnc21`, 882 s. With `COc1ccc(NC(=O)Cn2c(=O)c(CCC(=O)NCC(C)C)nc3ccccc32)cc1OC` the figure was 756 s; with `O=C(NCc1ccc(F)cc1)N1CCC(Nc2cccnc2)C1` (stereo not drawn), 591 s. The value for `CCCN(C)CC1(O)CCC2(CCN(C(=O)c3sccc3C)CC2)CC1` was 560 s; that for `O=C(Nc1ccc(-c2cn3cccnc3n2)cc1)c1cccc(Br)c1` was 702 s.

`Cc1ccc(-c2nnc(-c3ccccc3)o2)cc1S(=O)(=O)N(C)C`: the RP-LC retention time worked out at 950 s. With `COc1ccc(S(=O)(=O)N2CC3CN(C(=O)c4ccc(C#N)cc4)CC(C2)O3)cc1` the figure was 773 s.

Consider `Cc1cc2c(c(=O)n(-c3ccccc3)c(=O)n2CC(=O)Nc2ccccc2C(F)(F)F)n1C`, for which the RP-LC retention time came to 904 s. With `C[C@]12CCC3C(CC[C@H]4C[C@H](O)CC[C@]34C)C1CC[C@@H]2C(=O)CO` (stereo partly drawn) the figure was 1020 s; with `O=C(Nc1ccccc1-c1cn2c(CN3CCNCC3)csc2n1)c1cnc2ccccc2n1`, 783 s. For `Cc1c2cnn(CC(=O)N3CCN(c4ccccn4)CC3)c(=O)c2c(C)n1Cc1ccccc1F`, the RP-LC retention time turned out to be 650 s.

For `Cc1cc(OCC(=O)NCc2ccccc2Cl)nc(N2CCCC2)n1`, the RP-LC retention time was found to be 620 s. `Cc1cc2c(c(=O)n(-c3ccccc3)c(=O)n2CC(=O)Nc2ccc(C(F)(F)F)cc2)n1C` yielded an RP-LC retention time of 927 s. With `C=CCn1c(C)c(CC(=O)NCCOC)c(=O)n2nc(-c3ccc(C)cc3)nc12`, the RP-LC retention time was 732 s. With `Cc1ccc(-c2csc(Nc3ccc(Br)cn3)n2)cc1` the figure was 1250 s; with `COc1ccc(CCNC(=O)CN2C(=O)CSc3cccn3-c3ccccc32)cc1OC`, 831 s; with `CN(CC(=O)NC1CCCCC1)S(=O)(=O)c1c[nH]c(C(=O)N2CCCC2)c1`, 722 s. Turning to `O=C(Cn1ccc2ccc(N3CCOCC3)nc21)NCc1ccc(Br)cc1`, the RP-LC retention time came out at 915 s. On to `O=C(NCc1ccco1)C(=O)NCC1OCCN1C(=O)c1ccc2c(c1)OCO2` (stereo not drawn), for which the RP-LC retention time was 653 s.

Turning to `CCn1cc(C(=O)Nc2cccc(C(C)=O)c2)c2nn(-c3ccccc3)c(=O)c-2c1`, the RP-LC retention time turned out to be 808 s. Compound `CCc1ccc(CNC(=O)Cc2nnc(-c3ccc4ncccc4c3)o2)cc1` returned an RP-LC retention time of 758 s. With `O=C(COc1ccc(Cl)cc1)Nc1nc(-c2ccc(Cl)cc2)cs1` the figure was 1190 s. With `O=C([C@@H]1C[C@H](F)CN1S(=O)(=O)Cc1ccccc1Cl)N1CCc2ccccc2C1` the figure was 986 s; with `CSc1cccc(NC(=O)CN2CCC3(CC2)N=C(c2cccc(F)c2)C(=O)N3)c1`, 685 s; with `CCOc1ccccc1-n1ccn(Cc2nc(-c3ccc(C(C)(C)C)cc3)no2)c(=O)c1=O`, 699 s. With `COc1ccc(C(=O)Nc2nc(-c3ccc4c(c3)N(C)C(=O)C(C)O4)cs2)cc1OC` (stereo not drawn) the figure was 932 s. Consider `O=C(c1cc(C2CC2)n(C2CCS(=O)(=O)C2)n1)N1CCc2ccccc21` (stereo not drawn), for which the RP-LC retention time stood at 768 s. With `COc1ccc(S(=O)(=O)N2CCc3nn(C)c(=O)n3CC2)cc1Cl` the figure was 710 s; with `Cc1ccc(-c2nnc(N3CCC(C(=O)N4CCC5(CC4)OCCO5)CC3)o2)cc1`, 755 s.

The compound `COc1cc(NC(=O)NC(C)C)c2ncccc2c1` displayed an RP-LC retention time of 757 s. Compound `O=C(Cn1nc(N2CCOCC2)c2ccccc2c1=O)Nc1ccc(Cl)cc1F` displayed an RP-LC retention time of 866 s.

Compound `Cc1c(-c2noc(-c3ccccc3)n2)nnn1-c1ccccc1` registered an RP-LC retention time of 1060 s. With `CCn1nccc1C(=O)NC1CCN(c2cc(-c3ccccc3)[nH]n2)CC1` the figure was 688 s. `Cc1ccc(NC(=O)Cn2c(C)nc3c(sc4nc(-c5ccccc5)ccc43)c2=O)c(Cl)c1` registered an RP-LC retention time of 1140 s.

In turn, `Cc1ccc(N2C(=O)CN(S(=O)(=O)c3ccccc3)CC2(C)C(=O)NC2CCCCC2)cc1` (stereo not drawn) registered an RP-LC retention time of 1000 s. The value for `COC(=O)c1c(C)[nH]c(C(=O)N2CCC(CC(=O)N3CCCC3)CC2)c1C` was 628 s; that for `O=C(c1ccsc1)N1CCCN(c2cc(-c3ccc4c(c3)OCO4)[nH]n2)CC1` was 616 s; that for `COc1ccc(C(F)(F)F)cc1NC(=O)CCCSc1ccc(NC(C)=O)nn1` was 785 s. Compound `O=C(C1CCC(=O)N1S(=O)(=O)c1ccccc1)N1CCN(c2ccccn2)CC1` (stereo not drawn) showed an RP-LC retention time of 602 s. With `COc1ccc(CC(=O)NC2CCN(c3cc(-c4ccc(Cl)cc4)[nH]n3)C2)cc1` (stereo not drawn) the figure was 762 s; with `O=C(CN1CCc2ccccc2C1C(=O)N1CCCC1)Nc1ccc(Cl)cc1` (stereo not drawn), 860 s; with `Cc1cc(C)cc(Nc2c(-c3ccc(O)cc3)nc3ncccn23)c1`, 705 s.

On to `O=c1ccc(-c2ccc3c(c2)OCO3)nn1CCc1nc(-c2ccccc2Cl)no1`, for which the RP-LC retention time is 966 s.
